Data reported in patent publication US11731943B2, “Therapeutic compounds, compositions and methods of use thereof” (priority 2016, dated 2023).
Like-named read-outs stand apart in the source and are kept apart here.

Key:
[1] = biological target: isolated recombinant JAK2 kinase domain (Homo sapiens (Human), UniProt O60674); experiment: JAK2 enzyme assay (Caliper LabChip, Ki); assay type: biochemical
In short: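 Caliper LabChip readout of phosphorylated product as a fraction of total substrate, a fluorescently N-terminally labelled JAK3-derived peptide. Isolated human JAK kinase domains were incubated 30 min at 22 °C before EDTA quench (50 mM final).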

[2] = biological target: isolated recombinant JAK1 kinase domain (Homo sapiens (Human), UniProt P23458); experiment: JAK1 enzyme assay (Caliper LabChip, Ki); assay type: biochemical
In short: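 Ki derived via Morrison tight-binding model, ATP-competitive correction applied. Read-out: product/total ratio of a 5-carboxyfluorescein-tagged JAK3 peptide separated on Caliper LabChip after phosphorylation by isolated human JAK1 kinase domain (22 °C, 30 min; EDTA quench, 50 mM final).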

[3] = system: JAK1-dependent STAT6 phosphorylation downstream of IL-13 stimulation in BEAS-2B human bronchial epithelial cells; experiment: JAK1 pathway assay in BEAS-2B cells (IL-13-pSTAT6, MSD); assay type: cell-based; settings: Homo sapiens, BEAS-2B
Protocol: JAK1 Pathway Assay in Cell Lines was carried out as follows:
Inhibitor potency (EC50) was determined in cell-based assays designed to measure JAK1 dependent STAT phosphorylation.
In one assay approach, TF-1 human erythroleukemia cells obtained from the American Type Culture Collection (ATCC; Manassas, Va.) were used to measure JAK1-dependent STAT6 phosphorylation downstream of IL-13 stimulation. Prior to use in the assays, TF-1 cells were starved of GM-CSF overnight in OptiMEM medium (Life Technologies, Grand Island, N.Y.) supplemented with 0.5% charcoal/dextran stripped fetal bovine serum (FBS), 0.1 mM non-essential amino acids (NEAA), and 1 mM sodium pyruvate. The assays were run in 384-well plates in serum-free OptiMEM medium using 300,000 cells per well. In a second assay approach, BEAS-2B human bronchial epithelial cells obtained from ATCC were plated at 100,000 cells per well of a 96-well plate one day prior to the experiment. The BEAS-2B assay was run in complete growth medium (bronchial epithelial basal medium plus bulletkit; Lonza; Basel, Switzerland).
Test compounds were serially diluted 1:2 in DMSO and then diluted 1:50 in medium just before use. Diluted compounds were added to the cells, for a final DMSO concentration of 0.2%, and incubated for 30 min (for the TF-1 assay) or 1 hr (for the BEAS-2B assay) at 37° C. Then, cells were stimulated with human recombinant cytokine at their respective EC90 concentrations, as previously determined for each individual lot. Cells were stimulated with IL-13 (R&D Systems, Minneapolis, Minn.) for 15 min at 37° C. The TF-1 cell reactions were stopped by the direct addition of 10× lysis buffer (Cell Signaling Technologies, Danvers, Mass.), whereas the BEAS-2B cell incubations were halted by the removal of medium and addition of 1× lysis buffer. The resultant samples were frozen in the plates at −80° C. Compound mediated inhibition of STATE phosphorylation was measured in the cell lysates using MesoScale Discovery (MSD) technology (Gaithersburg, Md.).

[4] = BEAS-2B cells, IL-13 stimulation, read-out: IL-13 p-STAT6 BEAS-2B IC50

Chain of isolated recombinant JAK2 kinase domain (O60674 849-1124): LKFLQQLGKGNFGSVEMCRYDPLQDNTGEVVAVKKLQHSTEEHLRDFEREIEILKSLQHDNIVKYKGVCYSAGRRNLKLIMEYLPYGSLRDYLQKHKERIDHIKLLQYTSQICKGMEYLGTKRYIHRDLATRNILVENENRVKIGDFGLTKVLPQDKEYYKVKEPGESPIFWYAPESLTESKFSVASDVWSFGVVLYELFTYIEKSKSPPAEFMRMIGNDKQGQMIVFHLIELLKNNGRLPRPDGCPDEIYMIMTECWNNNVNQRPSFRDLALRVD
Chain of isolated recombinant JAK1 kinase domain (P23458 875-1153): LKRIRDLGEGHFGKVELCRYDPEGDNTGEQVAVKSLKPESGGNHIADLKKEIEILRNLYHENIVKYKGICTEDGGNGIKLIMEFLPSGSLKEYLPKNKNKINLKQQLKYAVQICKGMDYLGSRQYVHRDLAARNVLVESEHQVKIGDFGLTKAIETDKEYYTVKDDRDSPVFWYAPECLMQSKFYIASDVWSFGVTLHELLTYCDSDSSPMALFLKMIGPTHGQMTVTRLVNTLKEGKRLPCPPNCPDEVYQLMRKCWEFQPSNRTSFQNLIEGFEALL

N#CC[C@]1(n2cc(C(N)=O)c(NC(=O)C3CC3)n2)CC[C@@H](NCc2ccc(-c3ccccc3)cc2)CC1 [Example 128] showed a Ki [1] of 46.4 nM, a Ki [2] of 4.6 nM and an IC50 ([3]; read-out: IL-13 p-STAT6 BEAS-2B IC50, BEAS-2B cells, IL-13 stimulation) of 349 nM.

CN(CC(F)(F)F)[C@H]1CC[C@](CC#N)(n2cc(C(N)=O)c(NC(=O)C3CC3)n2)CC1 [Example 129] was tested, and the Ki [1] was 16.3 nM, the Ki [2] was 3.3 nM and the IC50 [3, 4] was 393 nM.

Work on COC1(C(F)(F)F)CN([C@H]2CC[C@@](CC#N)(n3cc(C(N)=O)c(NC(=O)C4CC4)n3)CC2)C1 [Example 131] yielded a Ki [1] of 18.7 nM, a Ki ([2]; read-out: JAK1 Ki) of 2.8 nM and an IC50 [3, 4] of 334 nM.

N#CC[C@]1(n2cc(C(N)=O)c(NC(=O)C3CC3)n2)CC[C@@H](N2CC(OCc3ccccc3)(C(F)(F)F)C2)CC1 [Example 133] gave a Ki [1] of 15.6 nM, a Ki ([2]; read-out: JAK1 Ki) of 2.5 nM and an IC50 [3, 4] of 162 nM.

In the case of CC(C)OC1(C(F)(F)F)CN([C@H]2CC[C@@](CC#N)(n3cc(C(N)=O)c(NC(=O)C4CC4)n3)CC2)C1 [Example 135], the Ki [1] is reported as 24.3 nM, the Ki ([2]; read-out: JAK1 Ki) is reported as 2.4 nM and the IC50 [3, 4] is reported as 170 nM.

N#CC[C@]1(n2cc(C(N)=O)c(NC(=O)C3CC3)n2)CC[C@@H](N2CC(O)(C(F)(F)F)C2)CC1 [Example 137, 1-[1-(cyanomethyl)-4-[3-hydroxy-3-(trifluoromethyl)azetidin-1-yl]cyclohexyl]-3-(cyclopropanecarbonylamino) pyrazole-4-carboxamide] showed a Ki [1] of 21.7 nM, a Ki ([2]; read-out: JAK1 Ki) of 2.7 nM and an IC50 [3, 4] of over 1000 nM.

N#CCC1(n2cc(C(N)=O)c(NC(=O)C3CC3)n2)CCN(Cc2ccc(-c3cccc(F)c3)c(O)c2)CC1 [Example 139, 1-[4-(cyanomethyl)-1-[[4-(3-fluorophenyl)-3-hydroxy-phenyl]methyl]-4-piperidyl]-3-(cyclopropanecarbonylamino) pyrazole-4-carboxamide] was tested, and the Ki [1] was 1 nM, the Ki ([2]; read-out: JAK1 Ki) was 0.4 nM and the IC50 [3, 4] was 104 nM.

With N#CCC1(n2cc(C(N)=O)c(NC(=O)C3CC3)n2)CCN(Cc2ccc(-c3ccccc3)c(F)c2)CC1 [Example 140, 1-[4-(cyanomethyl)-1-[(3-fluoro-4-phenyl-phenyl)methyl]-4-piperidyl]-3-(cyclopropanecarbonylamino) pyrazole-4-carboxamide] the Ki [1] was 4.4 nM, the Ki ([2]; read-out: JAK1 Ki) was 0.6 nM and the IC50 [3, 4] was 49 nM.

N#CCC1(n2cc(C(N)=O)c(NC(=O)C3CC3)n2)CCN(Cc2ccc(-c3csc(Cl)c3)c(F)c2)CC1 [Example 141, 1-[1-[[4-(5-chloro-3-thienyl)-3-fluoro-phenyl]methyl]-4-(cyanomethyl)-4-piperidyl]-3-(cyclopropanecarbonylamino) pyrazole-4-carboxamide] was tested, and the Ki [1] was 3.4 nM, the Ki ([2]; read-out: JAK1 Ki) was 0.8 nM and the IC50 [3, 4] was 62 nM.

With N#CCC1(n2cc(C(N)=O)c(NC(=O)C3CC3)n2)CCN(Cc2ccc(-c3ccccc3F)cc2)CC1 [Example 142, 1-[4-(cyanomethyl)-1-[[4-(2-fluorophenyl)phenyl]methyl]-4-piperidyl]-3-(cyclopropanecarbonylamino) pyrazole-4-carboxamide] the Ki [1] was 12.9 nM, the Ki ([2]; read-out: JAK1 Ki) was 1.7 nM and the IC50 [3, 4] was 60 nM.

N#CCC1(n2cc(C(N)=O)c(NC(=O)C3CC3)n2)CCN(Cc2ccc(-c3cccc(F)c3)cc2)CC1 [Example 143, 1-[4-(cyanomethyl)-1-[[4-(3-fluorophenyl)phenyl]methyl]-4-piperidyl]-3-(cyclopropanecarbonylamino) pyrazole-4-carboxamide] showed a Ki [1] of 5.5 nM, a Ki ([2]; read-out: JAK1 Ki) of 0.7 nM and an IC50 [3, 4] of 49 nM.

Compound CN(C)C(=O)c1cccc(-c2ccc(CN3CCC(CC#N)(n4cc(C(N)=O)c(NC(=O)C5CC5)n4)CC3)cc2)c1 [Example 145, 1-[4-(cyanomethyl)-1-[[4-[3-(dimethylcarbamoyl)phenyl]phenyl]methyl]-4-piperidyl]-3-(cyclopropanecarbonylamino) pyrazole-4-carboxamide] has a Ki [1] of 15.5 nM, a Ki ([2]; read-out: JAK1 Ki) of 3.1 nM and an IC50 [3, 4] of over 1000 nM.

N#CCC1(n2cc(C(N)=O)c(NC(=O)C3CC3)n2)CCN(Cc2ccc(-c3cccc(Cl)c3)cc2)CC1 [Example 146, 1-[1-[[4-(3-chlorophenyl)phenyl]methyl]-4-(cyanomethyl)-4-piperidyl]-3-(cyclopropanecarbonylamino) pyrazole-4-carboxamide] was tested, and the Ki [1] was 8.2 nM, the Ki ([2]; read-out: JAK1 Ki) was 1.1 nM and the IC50 [3, 4] was 95 nM.

N#CCC1(n2cc(C(N)=O)c(NC(=O)C3CC3)n2)CCN(Cc2ccc(-c3ccc(Cl)cc3)cc2)CC1 [Example 147, 1-[1-[[4-(4-chlorophenyl)phenyl]methyl]-4-(cyanomethyl)-4-piperidyl]-3-(cyclopropanecarbonylamino) pyrazole-4-carboxamide] gave a Ki [1] of 32 nM, a Ki ([2]; read-out: JAK1 Ki) of 2.1 nM and an IC50 [3, 4] of 51 nM.

N#CCC1(n2cc(C(N)=O)c(NC(=O)C3CC3)n2)CCN(Cc2ccc(-c3ccc(Cl)s3)cc2)CC1 [Example 148, 1-[1-[[4-(5-chloro-2-thienyl)phenyl]methyl]-4-(cyanomethyl)-4-piperidyl]-3-(cyclopropanecarbonylamino) pyrazole-4-carboxamide] showed a Ki [1] of 21.2 nM, a Ki ([2]; read-out: JAK1 Ki) of 1.8 nM and an IC50 [3, 4] of 48 nM.

N#CCC1(n2cc(C(N)=O)c(NC(=O)C3CC3)n2)CCN(Cc2ccc(-c3csc(Cl)c3)cc2)CC1 [Example 149, 1-[1-[[4-(5-chloro-3-thienyl)phenyl]methyl]-4-(cyanomethyl)-4-piperidyl]-3-(cyclopropanecarbonylamino) pyrazole-4-carboxamide] gave a Ki [1] of 4.7 nM, a Ki ([2]; read-out: JAK1 Ki) of 0.7 nM and an IC50 [3, 4] of 41 nM.

N#CCC1(n2cc(C(N)=O)c(NC(=O)C3CC3)n2)CCN(Cc2ccc(-c3ccc(C(F)(F)F)cc3)cc2)CC1 [Example 151, 1-[4-(cyanomethyl)-1-[[4-[4-(trifluoromethyl)phenyl]phenyl]methyl]-4-piperidyl]-3-(cyclopropanecarbonylamino) pyrazole-4-carboxamide] was tested, and the Ki [1] was 154 nM, the Ki ([2]; read-out: JAK1 Ki) was 3.4 nM and the IC50 [3, 4] was 286 nM.

Compound COc1cccc(-c2ccc(CN3CCC(CC#N)(n4cc(C(N)=O)c(NC(=O)C5CC5)n4)CC3)cc2)c1 [Example 152, 1-[4-(cyanomethyl)-1-[[4-(3-methoxyphenyl)phenyl]methyl]-4-piperidyl]-3-(cyclopropanecarbonylamino) pyrazole-4-carboxamide] has a Ki [1] of 7.8 nM, a Ki ([2]; read-out: JAK1 Ki) of 1.3 nM and an IC50 [3, 4] of 126 nM.

COc1ccc(-c2ccc(CN3CCC(CC#N)(n4cc(C(N)=O)c(NC(=O)C5CC5)n4)CC3)cc2)cc1 [Example 153, 1-[4-(cyanomethyl)-1-[[4-(4-methoxyphenyl)phenyl]methyl]-4-piperidyl]-3-(cyclopropanecarbonylamino) pyrazole-4-carboxamide] showed a Ki [1] of 30.8 nM, a Ki ([2]; read-out: JAK1 Ki) of 1.1 nM and an IC50 [3, 4] of 103 nM.

Work on CCc1cccc(-c2ccc(CN3CCC(CC#N)(n4cc(C(N)=O)c(NC(=O)C5CC5)n4)CC3)cc2)c1 [Example 154, 1-[4-(cyanomethyl)-1-[[4-(3-ethylphenyl)phenyl]methyl]-4-piperidyl]-3-(cyclopropanecarbonylamino) pyrazole-4-carboxamide] yielded a Ki [1] of 8.7 nM, a Ki ([2]; read-out: JAK1 Ki) of 1.5 nM and an IC50 [3, 4] of 116 nM.

CCc1ccc(-c2ccc(CN3CCC(CC#N)(n4cc(C(N)=O)c(NC(=O)C5CC5)n4)CC3)cc2)cc1 [Example 155, 1-[4-(cyanomethyl)-1-[[4-(4-ethylphenyl)phenyl]methyl]-4-piperidyl]-3-(cyclopropanecarbonylamino) pyrazole-4-carboxamide] showed a Ki [1] of 7.3 nM, a Ki ([2]; read-out: JAK1 Ki) of 0.6 nM and an IC50 [3, 4] of 60 nM.

N#CCC1(n2cc(C(N)=O)c(NC(=O)C3CC3)n2)CCN(Cc2ccc(-c3cccc(CO)c3)cc2)CC1 [Example 156, 1-[4-(cyanomethyl)-1-[[4-[3-(hydroxymethyl)phenyl]phenyl]methyl]-4-piperidyl]-3-(cyclopropanecarbonylamino) pyrazole-4-carboxamide] was tested, and the Ki [1] was 4.3 nM, the Ki ([2]; read-out: JAK1 Ki) was 0.6 nM and the IC50 [3, 4] was 209 nM.

In the case of COCc1cccc(-c2ccc(CN3CCC(CC#N)(n4cc(C(N)=O)c(NC(=O)C5CC5)n4)CC3)cc2)c1 [Example 157, 1-[4-(cyanomethyl)-1-[[4-[3-(methoxymethyl)phenyl]phenyl]methyl]-4-piperidyl]-3-(cyclopropanecarbonylamino) pyrazole-4-carboxamide], the Ki [1] is reported as 13.7 nM, the Ki ([2]; read-out: JAK1 Ki) is reported as 1.6 nM and the IC50 [3, 4] is reported as 104 nM.
